Molecules are shown by their SMILES. ≈ marks a conversion by molar mass, not a printed value.

Data set [1] has as its system Mycobacterium smegmatis MC^2155 strain. Briefly: Antibacterial activity against other nontuberculous mycobacteria, broth microdilution MIC (Test II-2). The format is cell-based. Particulars: Mycolicibacterium smegmatis, 37° C. for 30 hours, growth observed with the naked eye. On the procedure: (§1) 6 mL of 7H9 liquid medium (Middlebrook 7H9 broth 0.5% (DIFCO), bovine serum albumin 5.0% (SIGMA), glucose 2.0% (Wako Pure Chemical Industries, Ltd.) and sodium chloride 0.85% (Kanto Chemical Co., Inc.)) containing 0.05% Tween80 (Wako Pure Chemical Industries, Ltd.) was put in a cell culturing flask T25 (Corning incorporated). To this flask was added 200 μL of a glycerol stored bacterial suspension of Mycobacterium avium (JCM15430, given by Institute of Physical and Chemical Research, Microbe Division) or 120 μL of a glycerol stored bacterial suspension of Mycobacterium intracellulare (JCM6384, given by Institute of Physical and Chemical Research, Microbe Division). The Mycobacterium avium was statically cultured at 37° C. for 96 hours, and the Mycobacterium intracellulare was statically cultured at 37° C. for 72 hours. The cultured bacterial suspension was diluted with the medium by 200 times for the Mycobacterium avium and by 600 times for the Mycobacterium intracellulare to prepare bacterial suspensions for inoculation (equivalent to 4×10^6 CFU/mL). The minimum inhibitory concentration (MIC) of each bacterial suspension was measured by carrying out a broth microdilution method in accordance with the following procedure. To a 96-well microplate, a two-stage dilution series (a final concentration of 0.001 to 50 μg/mL) of a test compound sample prepared beforehand was dispensed at 5 μL/well. Next, the bacterial suspension for inoculation was added at 95 μL/well. The culture solution in the well was mixed, and the resulting mixture cultured at 37° C. for 120 hours. After the culture, MTT reagent (SIGMA) was added at 5 μL/well, and the resulting mixture was cultured at 37° C. for 16 hours. Thereafter, a cytolytic buffer (dimethylformamide: 40.0% (nacalai tesque), acetic acid: 2.0% (Kanto Chemical Co., Inc.), sodium dodecyl sulfate: 20.0% (Wako Pure Chemical Industries, Ltd.), hydrochloric acid: 0.03 N (Kanto Chemical Co., Inc.)) at 95 μL/well, and the resulting mixture was shaken for 1 hour. For the culture solution in each well, the absorbance was measured at 570 nm, the growth inhibition rate was then calculated, and the minimum concentration indicative of inhibition of growth of 90% or more of bacteria was defined as a MIC value. Compounds 40551-F, -D, -G, -H, -I, -K and -L were used as test compounds, and ethambutol which is a known drug that is used for treatment of MAC infection was used as a comparative compound.
A test against Mycobacterium smegmatis as other nontuberculous mycobacteria was conducted in accordance with the following procedure. 6 mL of 7H9 liquid medium containing 0.5% Tween80 (Wako Pure Chemical Industries, Ltd.) was put in a cell culturing flask T25 (Corning incorporated). In this flask, a glycelol stored bacterial suspension of Mycobacterium smegmatis (MC^2155, acquired from American Type Culture Collection) was inoculated with one platinum loop, and statically cultured at 37° C. for 30 hours. The cultured bacterial suspension was then diluted by 200 times with the medium to prepare a bacterial suspension for inoculation (equivalent to 8×10^6 CFU/mL). The MIC of the bacterial suspension was measured by carrying out a broth microdilution method in the same procedure as in Test II-1. The bacterial suspension was cultured under conditions of 37° C. for 30 hours, and the MIC value was determined by observing growth of bacteria with the naked eye.

Data set [2] relates to Mycobacterium bovis BCG Pasteur strain. Briefly: microbe, parasite or virus in culture. The format is cell-based. Particulars: Mycobacterium tuberculosis variant bovis BCG.
In data set [3] the test system is Mycobacterium intracellulare JCM 6384 strain. Briefly: Antibacterial activity against Mycobacterium avium complex, broth microdilution MIC (Test II-1). Particulars: JCM6384, 37° C. for 120 hours, MTT, minimum concentration inhibiting growth of 90% or more. The format is cell-based. As for the experimental part:
as §1

The subject of data set [4] is Mycobacterium avium JCM 15430 strain. The description is as above. The format is cell-based. Particulars: JCM15430, 37° C. for 120 hours, MTT, minimum concentration inhibiting growth of 90% or more. As for the experimental part: as §1
A further data set is described as follows: Solubility in solvent. The format is physicochemical. Particulars: organic solvents (methanol, DMSO).

`CC1OC(n2ccc(NC(=O)c3ccc(N4C(=O)C(C)(CO)NC4(C)C)cc3)nc2=O)CCC1OC1OC(C)C(N(C)C)C(O)C1O` (stereo not drawn) [Compound 40551-H]: the MIC is 1.56 µg/mL (≈ 2.37 µM) in data set [1], 0.39 µg/mL (≈ 0.592 µM) in data set [2], 1.56 µg/mL (≈ 2.37 µM) in data set [3] and 12.5 µg/mL (≈ 19 µM) in data set [4]. In “Solubility in solvent”, the Solubility in solvent result is reported as “soluble in methanol, DMSO, etc”.
On to `CC(C)=CC(=O)Nc1ccn(C2CCC(OC3OC(C)C(N(C)C)C(O)C3O)C(C)O2)c(=O)n1` (stereo not drawn) [Compound 40551-F, N-(1-(5-((5-(dimethylamino)-3,4-dihydroxy-6-methyltetrahydro-2H-pyran-2-yl)oxy)-6-methyltetrahydro-2H-pyran-2-yl)-2-oxo-1,2-dihydropyrimidine-4-yl)-3-methylbuta-2-enamide], for which the MIC in data set [1] was 3.12 µg/mL (≈ 6.49 µM); in data set [2], 1.56 µg/mL (≈ 3.25 µM); in data set [3], 0.39 µg/mL (≈ 0.812 µM); in data set [4], 0.78 µg/mL (≈ 1.62 µM). Further, the Solubility in solvent entry in “Solubility in solvent” is on record as “soluble in methanol, DMSO, etc”.
Take `C/C=C(\C)C(=O)Nc1ccn(C2CCC(OC3OC(C)C(N(C)C)C(O)C3O)C(C)O2)c(=O)n1` (stereo not drawn) [Compound 40551-I, (E)-N-(1-(5-((5-(dimethylamino)-3,4-dihydroxy-6-methyltetrahydro-2H-pyran-2-yl)oxy)-6-methyltetrahydro-2H-pyran-2-yl)-2-oxo-1,2-dihydropyrimidin-4-yl)-2-methylbuta-2-enamide]: the results for the MIC in data set [2] and in data set [3] were 6.25 µg/mL (≈ 13 µM) and 25 µg/mL (≈ 52 µM), respectively. Also, the Solubility in solvent entry in the data set “Solubility in solvent” is “soluble in methanol, DMSO, etc”.
Take `CC(C)/C=C/C(=O)Nc1ccn(C2CCC(OC3OC(C)C(N(C)C)C(O)C3O)C(C)O2)c(=O)n1` (stereo not drawn) [Compound 40551-L, (E)-N-(1-(5-((5-(dimethylamino)-3,4-dihydroxy-6-methyltetrahydro-2H-pyran-2-yl)oxy)-6-methyltetrahydro-2H-pyran-2-yl)-2-oxo-1,2-dihydropyrimidin-4-yl)-4-methylpenta-2-enamide]: the MIC in data set [1] worked out at 3.12 µg/mL (≈ 6.31 µM); in data set [2] it was 1.56 µg/mL (≈ 3.15 µM); in data set [3], 0.78 µg/mL (≈ 1.58 µM); in data set [4], 3.12 µg/mL (≈ 6.31 µM). In addition, in the data set “Solubility in solvent”, the Solubility in solvent entry is “soluble in methanol, DMSO, etc”.
In the case of `CC[C@@H](CO)NCCN[C@@H](CC)CO` [Ethambutol, reference compound], the MIC in data set [1] was 0.78 µg/mL (≈ 3.82 µM); in data set [2] it was 1.56 µg/mL (≈ 7.64 µM); in data set [3], 3.12 µg/mL (≈ 15.3 µM); in data set [4], 12.5 µg/mL (≈ 61.2 µM).
Consider `CCC(C)/C=C/C(=O)Nc1ccn(C2CCC(OC3OC(C)C(N(C)C)C(O)C3O)C(C)O2)c(=O)n1` (stereo not drawn) [Compound 40551-G], for which the MIC in data set [1] amounted to 12.5 µg/mL (≈ 24.6 µM); in data set [2], 6.25 µg/mL (≈ 12.3 µM); in data set [3] it was 3.12 µg/mL (≈ 6.13 µM); in data set [4] it was 6.25 µg/mL (≈ 12.3 µM). The Solubility in solvent entry in “Solubility in solvent” is listed as “soluble in methanol, DMSO, etc”.
Take `CC(C)C(=O)Nc1ccc(C(=O)Nc2ccn(C3CCC(OC4OC(C)C(N(C)C)C(O)C4O)C(C)O3)c(=O)n2)cc1` (stereo not drawn) [Compound 40551-D]: the MIC in data set [2] is 6.25 µg/mL (≈ 10.6 µM); in data set [3], 12.5 µg/mL (≈ 21.3 µM); in data set [4], 12.5 µg/mL (≈ 21.3 µM). Moreover, the Solubility in solvent result in the data set “Solubility in solvent” is “soluble in methanol, DMSO, etc”.
In the case of `CC(C)CC(=O)Nc1ccn(C2CCC(OC3OC(C)C(N(C)C)C(O)C3O)C(C)O2)c(=O)n1` (stereo not drawn) [Compound 40551-K], the MIC in data set [1] was determined as 25 µg/mL (≈ 51.8 µM); in data set [2], 6.25 µg/mL (≈ 13 µM); in data set [3] it was 6.25 µg/mL (≈ 13 µM); in data set [4] it was 25 µg/mL (≈ 51.8 µM). The Solubility in solvent result in the data set “Solubility in solvent” is reported as “soluble in methanol, DMSO, etc”.

The values are drawn from US11407742B2 (THE KITASATO INSTITUTE, priority 2017, dated 2022).
